These results are taken from patent US11234939B2, “Dosage forms comprising a plasma kallikrein inhibitor” (KALVISTA PHARMACEUTICALS LIMITED, priority 2017, dated 2022).

The solubility is how much of the substance goes into solution per volume. High values mean a readily soluble substance, low ones a poorly soluble substance.

Series [1] has as its system rats. The settings on record: systemic administration; cited from earlier work.
Series [2] can be described thus: Slurry Studies. Type of series: physicochemical. The settings on record: 90/10 IPA/water, ambient temperature, 72 hrs. The method, then:
Form 1 (20 mg) was suspended in 90/10 IPA/water […] and shaken at ambient temperature for 72 hrs. The supernatant was evaporated rather than filtered due to the small volume and the resulting solid was examined by XRPD (FIG. 5).

Series [3] in a line: Gravimetric Vapour Sorption (GVS) of Form 1. It is filed as physicochemical. The method, then:
Gravimetric Vapour Sorption (GVS) data were collected using the following method: Approximately 10 mg of sample was placed into a wire-mesh vapour sorption balance pan and loaded into an ‘IgaSorp’ vapour sorption balance (Hiden Analytical Instruments). The sample was then dried by maintaining a 0% humidity environment until no further weight change was recorded. Subsequently, the sample was then subjected to a ramping profile from 0-90% RH at 10% RH increments, maintaining the sample at each step until equilibration had been attained (99% step completion). Upon reaching equilibration, the % RH within the apparatus was ramped to the next step and the equilibration procedure repeated. After completion of the sorption cycle, the sample was then dried using the same procedure. The weight change during the sorption/desorption cycles were then monitored, allowing for the hygroscopic nature of the sample to be determined.

The nature of series [4]: Visual Aqueous Solubility. It is filed as physicochemical. The settings on record: thermodynamic from solid; 10 mg in 20 mL water. The method, then:
Form 1 (10 mg) was weighed into a glass vial and water was added in […] up to 3 mL then 1 mL portions thereafter. Solubility was assessed visually following a brief period of equilibration.

Series [5] in a line: Stability study of Form 1 on storage. Type of series: physicochemical. The settings on record: for Change in XRPD diffractogram on storage: after 1 month and 3 months. The method, then: A sample of Form 1 was packed in double polyethylene bags and sealed in a HDPE bottle and stored at conditions of 25° C./60% RH. The sample was reanalysed after 1 month and 3 months by XRPD (using Method B). No change in the XRPD diffractogram was observed when the sample was stored at 25° C./60% RH after either 1 month or 3 months.
Further tests on the sample of Form 1 stored at 25° C./60% RH were carried out as described in Table 1:
A second sample of Form 1 was packed in double polyethylene bags and sealed in a HDPE bottle and stored under accelerated stability conditions of 40° C./75% RH. The sample was reanalysed after 1 month and 3 months by XRPD (using Method B). No change in the XRPD diffractogram was observed when the sample was stored at 40° C./75% RH after either 1 month or 3 months.
Further tests on the sample of Form 1 stored at 40° C./75% RH were carried out as described in Table 2: […]

Series [6] is described as follows: Polymorph stability of Form 5. The settings on record: also on XRPD measurement. Type of series: physicochemical.
A short description of series [7]: Gravimetric Vapour Sorption (GVS) of Form 5. Type of series: physicochemical. The settings on record: 0% to 95% RH. The method, then: Form 5 is hygroscopic with a mass uptake of 23%, as determined by Gravimetric Vapour Sorption (GVS) studies. The GVS studies were performed using a Surface Measurement Systems Ltd. DVS-1 No Video, equipment #2126. The sample was loaded into a balance pan, typically 20-30 mg, and equilibrated at 0% RH. After the material was dried, the RH was increased with 10% per step for 1 hour per increment, ending at 95% RH. After completion of the sorption cycle, the sample was dried using the same method. The software used for data collection was DVSWin v3.01 No Video. Data analysis was performed using DVS Standard Analysis Suite v6.3.0 (Standard).

Series [8] deals with LPS-induced disseminated intravascular coagulation. The settings on record: cited from earlier work.
Series [9] concerns intrinsic pathway of coagulation. The settings on record: in vitro; cited from earlier work.
Series [10] concerns blood. The settings on record: blood contacted with the inhibitor; cited from earlier work.

Regarding `N=C(N)c1ccc(CNC(=O)c2cnn(Cc3ccccc3)c2)cc1` [ASP-440], the Hematoma expansion entry in series [1] is “reduced”.
Turning to `COCc1nn(Cc2ccc(Cn3ccccc3=O)cc2)cc1C(=O)NCc1nccc(OC)c1F` [Form 1, N-[(3-Fluoro-4-methoxypyridin-2-yl)methyl]-3-(methoxymethyl)-1-({4-[(2-oxopyridin-1-yl)methyl]phenyl}methyl)pyrazole-4-carboxamide], the “XRPD after slurry compared with FIG. 1a” value in series [2] is reported as “tendency to form hydrate(s)”. The “%-Wt(dry basis)” value in series [3] (adsorption, 0.0335 %-RH) amounted to 0.04722%; in [3] (adsorption, 9.9791 %-RH) it was 0.23%; in series [3] (adsorption, 20.0169 %-RH), 0.3541%; in [3] (adsorption, 30.0091 %-RH) it was 0.7126%; in series [3] (adsorption, 39.9998 %-RH), 0.825%; in series [3] (adsorption, 49.991 %-RH), 1.207%. Also, the “%-Wt(dry basis)” value in series [3] (adsorption, 59.9808 %-RH) was found to be 1.699%; in series [3] (adsorption, 70.0195 %-RH), 1.912%; in series [3] (adsorption, 80.0136 %-RH), 2.186%; in series [3] (adsorption, 90.0039 %-RH) it was 3.226%; in series [3] (desorption, 0.0335 %-RH), 0.000368%; in [3] (desorption, 4.9801 %-RH), 0.1269%. In addition, the “%-Wt(dry basis)” value in series [3] (desorption, 15.0203 %-RH) is 0.5017%; in series [3] (desorption, 25.0135 %-RH), 0.7008%; in [3] (desorption, 35.0052 %-RH) it was 1.017%; in series [3] (desorption, 44.9954 %-RH), 1.525%; in series [3] (desorption, 54.9837 %-RH) it was 1.685%; in series [3] (desorption, 64.9759 %-RH), 1.865%. The “%-Wt(dry basis)” value in [3] (desorption, 75.0151 %-RH) was 2.116%; in series [3] (desorption, 85.0063 %-RH), 2.547%. Besides, the “Hygroscopicity (GVS)” value in [3] (up to 70% relative humidity) is given as “absence of significant hygroscopicity”. In [4], this compound gave a solubility of under 500 µg/mL. Also, the Appearance result in series [5] (25° C./60% RH, 1 month) is given as “Off-white”; in [5] (25° C./60% RH, 3 months), “Off-white”; in series [5] (25° C./60% RH, Initial) it was “Off-white”; in series [5] (40° C./75% RH, 1 month), “Off-white”; in series [5] (40° C./75% RH, 3 months) it was “Off-white”; in series [5] (40° C./75% RH, Initial) it was “Off-white”. Besides, the “Assay by HPLC (on an anhydrous and solvent free basis)” value in [5] (25° C./60% RH, 1 month) was determined as 99.5 % w/w; in series [5] (25° C./60% RH, 3 months), 99.6 % w/w; in series [5] (25° C./60% RH, Initial), 101.0 % w/w; in [5] (40° C./75% RH, 1 month), 99.5 % w/w; in series [5] (40° C./75% RH, 3 months) it was 100.0 % w/w; in series [5] (40° C./75% RH, Initial), 101.0 % w/w. In addition, the “DSC Tonset” value turned out to be 151.1 °C in series [5] (25° C./60% RH, 1 month); 150.8 °C in series [5] (25° C./60% RH, 3 months); 151.3 °C in [5] (25° C./60% RH, Initial); 151.1 °C in [5] (40° C./75% RH, 1 month); 150.6 °C in series [5] (40° C./75% RH, 3 months); 151.3 °C in series [5] (40° C./75% RH, Initial). The “DSC Tpeak” value turned out to be 152.4 °C in series [5] (25° C./60% RH, 1 month); 152.2 °C in series [5] (25° C./60% RH, 3 months); 152.9 °C in series [5] (25° C./60% RH, Initial); 152.3 °C in series [5] (40° C./75% RH, 1 month); 152.5 °C in series [5] (40° C./75% RH, 3 months); 152.9 °C in [5] (40° C./75% RH, Initial). Besides, the “HPLC assay (on an as is basis)” value turned out to be 99.4 % w/w in [5] (25° C./60% RH, 1 month); 99.5 % w/w in series [5] (25° C./60% RH, 3 months); 100.9 % w/w in series [5] (25° C./60% RH, Initial); 99.4 % w/w in series [5] (40° C./75% RH, 1 month); 99.9 % w/w in series [5] (40° C./75% RH, 3 months); 100.9 % w/w in series [5] (40° C./75% RH, Initial). Besides, the “Purity by HPLC” value in [5] (25° C./60% RH, 1 month) is 99.62 area %; in series [5] (25° C./60% RH, 3 months), 99.70 area %; in series [5] (25° C./60% RH, Initial), 99.70 area %; in [5] (40° C./75% RH, 1 month), 99.57 area %; in series [5] (40° C./75% RH, 3 months), 99.71 area %; in series [5] (40° C./75% RH, Initial), 99.70 area %. Moreover, the “Solid form of compound A by XRPD” value in series [5] (25° C./60% RH, 1 month) is “Conforms”; in series [5] (25° C./60% RH, 3 months), “Conforms”; in [5] (25° C./60% RH, Initial) it was “Conforms”; in [5] (40° C./75% RH, 1 month), “Conforms to”; in series [5] (40° C./75% RH, 3 months), “Conforms to”; in series [5] (40° C./75% RH, Initial), “Conforms to”. For the same compound, the Total impurities in series [5] (25° C./60% RH, 1 month) amounted to 0.38 area %; in series [5] (25° C./60% RH, 3 months), 0.30 area %; in series [5] (25° C./60% RH, Initial), 0.30 area %; in series [5] (40° C./75% RH, 1 month) it was 0.43 area %; in [5] (40° C./75% RH, 3 months), 0.29 area %; in series [5] (40° C./75% RH, Initial), 0.30 area %. In addition, the “Water by Karl Fischer analysis” value was under 0.1 % w/w in series [5] (25° C./60% RH, 1 month); under 0.1 % w/w in [5] (25° C./60% RH, 3 months); under 0.1 % w/w in [5] (25° C./60% RH, Initial); under 0.1 % w/w in series [5] (40° C./75% RH, 1 month); 0.1 % w/w in series [5] (40° C./75% RH, 3 months); under 0.1 % w/w in [5] (40° C./75% RH, Initial). The “Change in XRPD diffractogram on storage” value in series [5] (25° C./60% RH) and in series [5] (40° C./75% RH) was “no change” each time.
Turning to `COCc1nn(Cc2ccc(Cn3ccccc3=O)cc2)cc1C(=O)NCc1nccc(OC)c1F` [Form 5, N-[(3-Fluoro-4-methoxypyridin-2-yl)methyl]-3-(methoxymethyl)-1-({4-[(2-oxopyridin-1-yl)methyl]phenyl}methyl)pyrazole-4-carboxamide], in series [6], the “Polymorph conversion over time” value is recorded as “converts into polymorph Form 3”. For the same compound, in [7], the “GVS (mass uptake %)” value amounted to 23%.
In the case of `Cl.NCC1CCC(C(=O)N[C@@H](Cc2ccccc2)C(=O)Nc2ccc(CC(=O)O)cc2)CC1` (stereo partly shown) [PKSI-527], the “Decrease in platelet count and fibrinogen level and increase in FDP level” value in series [8] was “significantly suppressed”.
For the compound Ecallantide, in [9], the “Contact activated induced coagulation” value is recorded as “delay”. Further, the “Activated clotting time (ACT)” value in [10] is given as “increase”.
